From ChEMBL document CHEMBL5136985, “Natural and synthetic β-carboline as a privileged antifungal scaﬀolds” (Eur J Med Chem, 2022)
Converted amounts (≈) assume the structure as drawn.

What was measured:
Candida albicans [1] = assay: Antifungal activity against Candida albicans incubated for 24 hrs by TTC staining method; format: functional
Fusarium solani [2] = assay: Antifungal activity against Fusarium solani incubated for 72 hrs; format: functional, organism-based; conditions: time 72 hrs
Fusarium solani [3] = assay: Antifungal activity against Fusarium solani relative to control; format: functional
Botrytis cinerea = assay: Antifungal activity against Botrytis cinerea; format: functional, organism-based
Gaeumannomyces graminis = assay: Antifungal activity against Gaeumannomyces graminis; format: functional, organism-based
[4] = test system: Colletotrichum gloeosporioides; assay: Antifungal activity against Colletotrichum gloeosporioides assessed as diameter of zone inhibition at 100 ug per disk incubated for 24 hrs; format: functional; conditions: read-out: DIZ
Saccharomyces cerevisiae = assay: Antifungal activity against Saccharomyces cerevisiae assessed as diameter of zone inhibition at 100 ug per disk incubated for 24 hrs; format: functional; conditions: read-out: DIZ
Phyllosticta citricarpa = assay: Antifungal activity Phyllosticta citricarpa against assessed as diameter of zone inhibition at 100 ug per disk incubated for 24 hrs; format: functional; conditions: read-out: DIZ
Alternaria solani [5] = assay: Antifungal activity against Alternaria solani relative to control; format: functional; set-up: concentration or dose not given beside the values
[6] = test system: Cryptococcus deuterogattii; assay: Antifungal activity against Cryptococcus gattii VGII incubated for 24 to 48 hrs by 96-well plate method; format: functional, Cryptococcus gattii species complex; conditions: time 24-48 hrs
Cryptococcus neoformans = assay: Antifungal activity against Cryptococcus neoformans incubated for 24 to 48 hrs by 96-well plate method; format: functional; conditions: time 24-48 hrs
Bipolaris maydis [7] = assay: Antifungal activity against Bipolaris maydis relative to control; format: functional; set-up: concentration or dose not given beside the values
Candida albicans [8] = assay: Antifungal activity against Candida albicans incubated for 24 to 48 hrs by 96-well plate method; format: functional; conditions: time 24-48 hrs
Bipolaris oryzae [9] = assay: Antifungal activity against Bipolaris oryzae incubated for 7 days; format: functional; conditions: 168 h, time 7 day
Bipolaris maydis [10] = assay: Antifungal activity against Bipolaris maydis assessed as inhibition rate of fungal growth at 50 mg/kg relative to control; format: functional
Alternaria solani [11] = assay: Antifungal activity against Alternaria solani assessed as inhibition rate of fungal growth at 50 mg/kg relative to control; format: functional
Bipolaris oryzae [12] = assay: Antifungal activity against Bipolaris oryzae; format: functional, organism-based
Mucor hiemalis = assay: Antifungal activity against Mucor hiemalis by 96-well plate method; format: functional
[13] = test system: Botryosphaeria berengeriana; assay: Antifungal activity against Physalospora pyricola relative to control; format: functional
[14] = test system: Botryosphaeria berengeriana; assay: Antifungal activity against Physalospora pyricola assessed as inhibition rate of fungal growth at 50 mg/kg relative to control; format: functional

**Q.** With `O=[N+]([O-])c1cccc(-c2nc(-c3n[nH]c(=S)o3)cc3c2[nH]c2ccccc23)c1` as the compound, how does the MIC (Candida albicans [1]) read?
**A.** 3.1 mg/L (≈ 7.96 µM)

**Q.** Which “inhibition (INH)” value (Fusarium solani [2]) does the source give for `CC(=O)Oc1ccc2c(c1)c1ccnc3ccc(=O)n2c31` here?
**A.** 86%

**Q.** And the Activity (Fusarium solani [3])?
**A.** 86%

**Q.** `COC(=O)c1cc2c([nH]c3ccccc32)c(C(N)=O)n1` was tested. Which EC50 (Botrytis cinerea) did it give?
**A.** 14.2 µM

**Q.** What about the EC50 (Gaeumannomyces graminis) of the same compound?
**A.** 0.45 µM

**Q.** Which zone of inhibition at 100 µg/disc [4] does the source give for `C=Cc1nc(C(=O)O)cc2c1[nH]c1ccccc12` here?
**A.** 16 mm

**Q.** What about the zone of inhibition at 100 µg/disc (Saccharomyces cerevisiae) of the same compound?
**A.** 9 mm

**Q.** And the zone of inhibition at 100 µg/disc (Phyllosticta citricarpa)?
**A.** 17 mm

**Q.** Which Activity (Alternaria solani [5]) does the source give for `Cc1nccc2c1[nH]c1c([N+](=O)[O-])cccc12` here?
**A.** 88.9%

**Q.** And the MIC [6]?
**A.** 40 mg/L (≈ 176 µM)

**Q.** And the MIC (Cryptococcus neoformans)?
**A.** 40 mg/L (≈ 176 µM)

**Q.** What about the Activity (Bipolaris maydis [7]) of the same compound?
**A.** 94.7%

**Q.** And the MIC (Candida albicans [8])?
**A.** 40 mg/L (≈ 176 µM)

**Q.** Which MIC (Bipolaris oryzae [9]) does the source give for `CCCCCCCCN1CCc2c([nH]c3ccccc23)C1` here?
**A.** 28 mg/L (≈ 98.4 µM)

**Q.** With `Cc1nc(/C=C/C(=O)O)cc2c1[nH]c1ccccc12` as the compound, how does the inhibition in vivo at 50 mg/kg (Bipolaris maydis [10]) read?
**A.** 9.8%

**Q.** And the Activity (Bipolaris maydis [7])?
**A.** 9.8%

**Q.** And the inhibition in vivo at 50 mg/kg (Alternaria solani [11])?
**A.** 10.5%

**Q.** How did the EC50 (Bipolaris oryzae [12]) turn out when `CCCCCN1CCc2c([nH]c3ccccc23)C1` was run?
**A.** 110 mg/L (≈ 454 µM)

**Q.** For `CC(C)CCCC(=O)c1nc(C(=O)O)cc2c1[nH]c1ccccc12`, which MIC (Mucor hiemalis) is on record?
**A.** 8.3 mg/L (≈ 25.6 µM)

**Q.** `CC1NC(C(=O)N/N=C/c2ccc(Cl)c(Cl)c2)Cc2c1[nH]c1ccccc21` (configuration not stated) was tested. Which inhibition in vivo at 50 mg/kg (Bipolaris maydis [10]) did it give?
**A.** 80%

**Q.** And the Activity [13]?
**A.** 97%

**Q.** What about the inhibition in vivo at 50 mg/kg [14] of the same compound?
**A.** 97%
